test: in vitro; details: human, hela cells, % viability

SMILES	viability at 28.5 h, 10 µM [%]
CN(C)CCN(C)C(=O)c1ccc(-c2cc(C(F)(F)F)cc(C(F)(F)F)c2)nc1N(C)C [CBK106069]	97
COc1ccccc1-c1ccc(C(=O)N(C)CCN(C)C)c(N(C)C)n1 [CBK106075]	88.5
COc1cc(-c2ccc(C(=O)N(C)CCN(C)C)c(N(C)C)n2)cc(OC)c1OC [CBK106076]	109
CN(C)CCN(C)C(=O)c1ccc(-c2ccco2)nc1N(C)C [CBK106078]	84.1
CN(C)CCN(C)C(=O)c1ccc(-c2cccc(Cl)c2Cl)nc1N(C)C [CBK106082]	94.1
Cc1ccccc1-c1ccc(C(=O)N(C)CCN(C)C)c(N(C)C)n1 [CBK106090]	96
CN(C)c1nc(-c2cc(C(F)(F)F)cc(C(F)(F)F)c2)ccc1C(=O)NCc1ccco1 [CBK106094]	89.5
CN1CCN(C(=O)c2ccc(-c3ccco3)nc2N(C)C)CC1 [CBK106121]	94.4
COc1ccc(C(C)C)cc1-c1ccc(C(=O)N2CCN(C)CC2)c(N(C)C)n1 [CBK106130]	88
CN1CCN(C(=O)c2ccc(-c3cccc(C(F)(F)F)c3)nc2N2CCOCC2)CC1 [CBK106194]	94
Cc1csc(-c2ccc(C(=O)N3CCN(C)CC3)c(N3CCOCC3)n2)c1 [CBK106195]	90.8
Cc1ccc(C(=O)N2CCN(C)CC2)c(N2CCOCC2)n1 [CBK106199]	100
COc1ccc2[nH]cc(CCNC(=O)c3ccc(C)nc3N3CCOCC3)c2c1 [CBK106203]	108
CNC(=O)c1ccc(-c2ccco2)nc1N1CCOCC1 [CBK106212]	108
CNC(=O)c1ccc(-c2cccc(Cl)c2Cl)nc1N1CCOCC1 [CBK106215]	109
Cc1ccc(C(=O)Nc2cc(C)nn2C)c(N2CCOCC2)n1 [CBK106221]	104
COc1cccc(NC(=O)c2ccc(-c3ccsc3)nc2NCC2CC2)c1 [CBK106227]	90.5
COCCNC(=O)c1ccc(-c2ccccc2)nc1NCC1CC1 [CBK106242]	92
COCCNC(=O)c1ccc(-c2ccccc2OC)nc1NCC1CC1 [CBK106246]	103
COCCNC(=O)c1ccc(-c2cc(C)cs2)nc1NCC1CC1 [CBK106259]	106
COc1ccccc1-c1ccc(C(=O)N(C)CCN(C)C)c(NCC2CC2)n1 [CBK106269]	96.3

SMILES	viability at 28.5 h, 10 µM [%]
CNC(=O)c1ccc(-c2ccc(C(C)=O)s2)nc1NCC1CC1 [CBK106307]	95.3
CC(=O)Nc1nc(-c2ccccc2C)ccc1C(=O)NC1CCCCC1 [CBK106327]	99
CC(=O)Nc1nc(-c2ccccc2C)ccc1C(=O)N(C)C [CBK106328]	94.6
CC(=O)N(C)c1nc(-c2ccccc2)ccc1C(=O)NCc1ccco1 [CBK106334]	99.3
CC(=O)N(C)c1nc(-c2ccccc2)ccc1C(=O)Nc1ccc2c(c1)OCO2 [CBK106342]	96.8
CC(=O)N(C)c1nc(-c2ccco2)ccc1C(=O)Nc1cc(C)nn1C [CBK106356]	89.3
CC(=O)N(C)c1nc(-c2ccccc2C)ccc1C(=O)Nc1cc(C)nn1C [CBK106357]	88.6
CN(C)c1ncc(-c2ccc(O)cc2)cc1C(=O)NCc1ccc(F)cc1 [CBK106396]	91.5
COCCNC(=O)c1cc(-c2ccc(Cl)cc2)cnc1NS(C)(=O)=O [CBK106421]	94.4
COCCNC(=O)c1cc(-c2ccccc2C)cnc1NS(C)(=O)=O [CBK106422]	82.9
COc1cccc(-c2cnc(N(C)S(C)(=O)=O)c(C(=O)NC3CCCCC3)c2)c1 [CBK106446]	109
CN(c1ncc(-c2cc3ccccc3o2)cc1C(=O)Nc1ccc2c(c1)OCO2)S(C)(=O)=O [CBK106464]	101
CN(c1ncc(-c2cc3ccccc3o2)cc1C(=O)NCC(F)(F)F)S(C)(=O)=O [CBK106479]	114
O=C1CCC(=O)N1CCn1c(=O)n(S(=O)(=O)c2ccc(-c3ccccc3)cc2)c2ccccc21 [CBK106494]	112
O=C1CCC(=O)N1CCn1c(=O)n(C(=O)CCC2CCCC2)c2ccccc21 [CBK106495]	96.8
O=C1CCC(=O)N1CCn1c(=O)n(C(=O)CCCOc2ccc(Cl)cc2)c2ccccc21 [CBK106496]	93.4
COc1ccccc1C(=O)Cn1c(=O)n(S(=O)(=O)c2ccccc2)c2ccccc21 [CBK106497]	90.2
CCN(CC)c1ccc(C(=O)Cn2c(=O)n(C(=O)c3cccc(S(C)(=O)=O)c3)c3ccccc32)cc1 [CBK106500]	94.2
CCCS(=O)(=O)n1c(=O)n(CC(=O)c2ccc(N(CC)CC)cc2)c2ccccc21 [CBK106504]	105
CN(C)c1cccc2c(S(=O)(=O)n3c(=O)n(CCc4c[nH]c5ccccc45)c4ccccc43)cccc12 [CBK106511]	85.8
CC(C)CCCC(=O)n1c(=O)n(CCc2c[nH]c3ccccc23)c2ccccc21 [CBK106513]	89.2

SMILES	viability at 28.5 h, 10 µM [%]
COc1ccc(CCCC(=O)n2c(=O)n(CCc3c[nH]c4ccccc34)c3ccccc32)cc1 [CBK106514]	91.3
CCCS(=O)(=O)n1c(=O)n(CCc2c[nH]c3ccccc23)c2ccccc21 [CBK106515]	87.8
O=c1n(CC2CCCCC2)c2ccccc2n1S(=O)(=O)c1cccc(Cl)c1 [CBK106521]	91.4
O=c1n(CC2CCCCC2)c2ccccc2n1S(=O)(=O)CCc1cccc2ccccc12 [CBK106525]	101
CC(C)S(=O)(=O)n1c(=O)n(Cc2ccc(S(C)(=O)=O)cc2)c2ccccc21 [CBK106529]	90.3
Cc1noc(C)c1S(=O)(=O)n1c(=O)n(Cc2ccc(S(C)(=O)=O)cc2)c2ccccc21 [CBK106536]	93.4
COc1ccc(Cn2c(=O)n(C(=O)c3cccc(S(C)(=O)=O)c3)c3ccccc32)cc1 [CBK106547]	86.5
COc1ccc(Cn2c(=O)n(S(=O)(=O)c3ccc(-c4cc(C(F)(F)F)n(C)n4)s3)c3ccccc32)cc1 [CBK106552]	97.7
CCCS(=O)(=O)n1c(=O)n(Cc2ccc(OC)cc2)c2ccccc21 [CBK106553]	99.7
CC(C)CCCC(=O)n1ccn(CCCOc2ccccc2)c1=O [CBK106561]	101
Cc1ccccc1-n1ccn(S(=O)(=O)C(C)C)c1=O [CBK106566]	89.7
CC(C)S(=O)(=O)n1ccn(-c2cccc(C(F)(F)F)c2)c1=O [CBK106577]	88
CN(C)c1cccc2c(S(=O)(=O)n3ccn(-c4cccc(C(F)(F)F)c4)c3=O)cccc12 [CBK106578]	109
O=c1n(-c2cccc(C(F)(F)F)c2)ccn1S(=O)(=O)c1ccc(Cl)c(Cl)c1 [CBK106579]	96.7
COC(=O)CCCC(=O)n1ccn(-c2cccc(C(F)(F)F)c2)c1=O [CBK106580]	87.6
CCCS(=O)(=O)n1ccn(-c2cccc(C(F)(F)F)c2)c1=O [CBK106585]	88.3
CC(C)c1ccc(S(=O)(=O)n2ccn(-c3cccc(C(F)(F)F)c3)c2=O)cc1 [CBK106587]	93.8
CC(C)S(=O)(=O)n1ccn(-c2ccc(N(C)C)cc2)c1=O [CBK106600]	95.7
CC(C)CCCC(=O)n1ccn(-c2ccc(N(C)C)cc2)c1=O [CBK106603]	92.7
CN(C)c1ccc(-n2ccn(S(=O)(=O)c3ccc4ccccc4c3)c2=O)cc1 [CBK106607]	93.5
CN(C)c1ccc(-n2ccn(S(=O)(=O)c3ccc(Oc4ccccc4)cc3)c2=O)cc1 [CBK106608]	89.3

SMILES	viability at 28.5 h, 10 µM [%]
Cc1nn(C)c(C)c1S(=O)(=O)n1ccn(-c2ccc(N(C)C)cc2)c1=O [CBK106610]	93
O=C(CCCOc1ccc(Cl)cc1)n1ccn(CCc2cccs2)c1=O [CBK106614]	104
O=c1n(C(c2ccccc2)c2ccccc2)ccn1S(=O)(=O)c1ccc2ccccc2c1 [CBK106623]	94.6
O=c1n(C(c2ccccc2)c2ccccc2)ccn1S(=O)(=O)c1ccc(Oc2ccccc2)cc1 [CBK106624]	89.5
COc1cccc(-n2ccn(C(=O)CCC3CCCC3)c2=O)c1 [CBK106625]	91.1
CC(C)S(=O)(=O)n1ccn(-c2ccc3c(c2)OCO3)c1=O [CBK106630]	90.9
O=c1n(-c2ccc3c(c2)OCO3)ccn1S(=O)(=O)c1ccc2c(c1)OCCO2 [CBK106636]	87.8
COc1cccc(OCc2ccc(Cn3ccn(C(=O)CCCC(C)C)c3=O)cc2)c1 [CBK106638]	90.5
Cc1nc2cc(OCc3ccc(Cn4ccn(C(=O)CCC5CCCC5)c4=O)cc3)ccc2s1 [CBK106641]	115
CC(C)S(=O)(=O)n1ccn(-c2ccc(Oc3ccccc3)cc2)c1=O [CBK106644]	86.3
CCCc1ccc(S(=O)(=O)n2ccn(-c3ccc(Oc4ccccc4)cc3)c2=O)cc1 [CBK106648]	107
COc1ccc(S(=O)(=O)n2ccn(-c3ccc(Oc4ccccc4)cc3)c2=O)cc1OC [CBK106649]	86.9
O=c1n(-c2ccc(OC(F)(F)F)cc2)ccn1S(=O)(=O)c1ccccc1 [CBK106655]	95.1
O=c1n(-c2ccc(OC(F)(F)F)cc2)ccn1S(=O)(=O)c1ccc(Cl)c(Cl)c1 [CBK106656]	94.7
COc1ccc(OCCCn2ccn(C(=O)CCCOc3ccc(Cl)cc3)c2=O)cc1 [CBK106662]	94.3
CCCS(=O)(=O)n1ccn(-c2ccc(Cl)c(Cl)c2)c1=O [CBK106667]	110
O=c1n(-c2ccc(Cl)c(Cl)c2)ccn1S(=O)(=O)CCc1cccc2ccccc12 [CBK106668]	106
O=C(OCc1ccccc1)N1CCC(n2ccn(C(=O)CCC3CCCC3)c2=O)CC1 [CBK106670]	86.7
COc1cccc(Oc2nccnc2-c2ccc3c(c2)OCO3)c1 [CBK106704]	94.9
c1ccc(C(Oc2nccnc2-c2ccc3c(c2)OCO3)c2ccccc2)cc1 [CBK106707]	103

From publication PMC12040169 (PLOS Biology, 2025)
